These results are taken from ChEMBL document CHEMBL5291721, “A preclinical secondary pharmacology resource illuminates target-adverse drug reaction associations of marketed drugs” (Nat Commun, 2023).

Assay [1] concerns the target T1, Androgen receptor (Rattus norvegicus, UniProt P15207).
T1 sequence (P15207 whole entry): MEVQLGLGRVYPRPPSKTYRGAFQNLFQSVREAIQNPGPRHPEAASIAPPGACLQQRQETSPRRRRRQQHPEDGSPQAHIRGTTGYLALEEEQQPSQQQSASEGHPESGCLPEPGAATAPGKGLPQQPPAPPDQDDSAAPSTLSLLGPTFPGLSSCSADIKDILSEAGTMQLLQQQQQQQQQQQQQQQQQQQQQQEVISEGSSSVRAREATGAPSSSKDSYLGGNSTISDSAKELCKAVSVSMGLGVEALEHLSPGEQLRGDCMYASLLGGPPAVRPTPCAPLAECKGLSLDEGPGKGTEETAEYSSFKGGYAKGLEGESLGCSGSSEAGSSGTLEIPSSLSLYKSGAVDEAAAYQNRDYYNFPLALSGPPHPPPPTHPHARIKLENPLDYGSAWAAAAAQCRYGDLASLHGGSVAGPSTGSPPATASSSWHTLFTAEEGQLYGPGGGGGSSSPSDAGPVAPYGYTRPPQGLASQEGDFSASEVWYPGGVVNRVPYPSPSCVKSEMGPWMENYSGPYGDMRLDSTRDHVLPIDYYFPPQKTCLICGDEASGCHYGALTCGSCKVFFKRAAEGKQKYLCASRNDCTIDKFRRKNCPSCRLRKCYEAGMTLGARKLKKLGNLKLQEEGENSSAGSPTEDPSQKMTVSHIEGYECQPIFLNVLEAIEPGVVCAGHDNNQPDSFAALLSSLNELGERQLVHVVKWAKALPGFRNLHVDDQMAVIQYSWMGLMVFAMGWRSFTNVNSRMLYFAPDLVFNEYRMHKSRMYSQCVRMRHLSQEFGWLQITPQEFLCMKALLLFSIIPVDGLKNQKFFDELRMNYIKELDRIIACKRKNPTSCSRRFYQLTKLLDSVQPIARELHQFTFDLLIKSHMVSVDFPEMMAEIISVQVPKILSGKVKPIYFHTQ
In kind it is functional.

Assay [2] concerns the target Gamma-aminobutyric acid receptor subunit alpha-1/alpha-2/beta-2/gamma-2 (Homo sapiens, UniProt P14867+P18507+P47869+P47870). In kind it is functional, cell-based.
Assay [3] deals with T1, Androgen receptor. In kind it is functional. The source holds these as a separate data set.
For the next assay, the target named is Histamine H1 receptor (Homo sapiens, UniProt P35367). In kind it is functional, cell-based.
Chain of Histamine H1 receptor (P35367 whole entry): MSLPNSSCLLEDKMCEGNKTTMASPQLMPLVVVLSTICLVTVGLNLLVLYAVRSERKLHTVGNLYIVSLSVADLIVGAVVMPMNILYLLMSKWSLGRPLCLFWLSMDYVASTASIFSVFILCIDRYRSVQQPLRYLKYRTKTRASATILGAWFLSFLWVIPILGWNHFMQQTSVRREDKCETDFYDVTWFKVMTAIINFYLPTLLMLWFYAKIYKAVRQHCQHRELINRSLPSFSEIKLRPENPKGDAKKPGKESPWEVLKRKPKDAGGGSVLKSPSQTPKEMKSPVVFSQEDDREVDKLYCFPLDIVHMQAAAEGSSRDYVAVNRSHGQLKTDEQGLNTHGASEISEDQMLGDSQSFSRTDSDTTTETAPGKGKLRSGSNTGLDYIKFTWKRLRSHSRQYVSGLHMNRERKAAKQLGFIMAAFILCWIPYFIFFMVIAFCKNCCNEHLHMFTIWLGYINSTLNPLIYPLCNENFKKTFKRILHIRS
Assay [4] concerns the target T1, Androgen receptor.
In assay [5] the target is T2, 5-hydroxytryptamine receptor 1A (Homo sapiens, UniProt P08908).
T2 sequence (P08908 whole entry): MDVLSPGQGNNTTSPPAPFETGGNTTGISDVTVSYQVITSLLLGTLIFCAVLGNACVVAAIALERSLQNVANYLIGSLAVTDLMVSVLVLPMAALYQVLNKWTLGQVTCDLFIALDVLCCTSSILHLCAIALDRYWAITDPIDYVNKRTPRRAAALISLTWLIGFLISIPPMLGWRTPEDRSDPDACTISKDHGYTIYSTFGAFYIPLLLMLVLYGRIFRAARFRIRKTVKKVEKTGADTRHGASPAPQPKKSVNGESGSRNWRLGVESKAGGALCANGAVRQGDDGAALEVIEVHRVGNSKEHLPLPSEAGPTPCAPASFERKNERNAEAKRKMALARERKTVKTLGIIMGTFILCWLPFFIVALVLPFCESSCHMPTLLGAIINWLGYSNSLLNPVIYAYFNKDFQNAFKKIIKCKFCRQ

The target of assay [6] is Voltage-dependent N-type calcium channel subunit alpha-1B (Rattus norvegicus, UniProt Q02294). The assay is classed as functional.
For the next assay, the target named is T3, B1 bradykinin receptor (Homo sapiens, UniProt P46663).
T3 sequence (P46663 whole entry): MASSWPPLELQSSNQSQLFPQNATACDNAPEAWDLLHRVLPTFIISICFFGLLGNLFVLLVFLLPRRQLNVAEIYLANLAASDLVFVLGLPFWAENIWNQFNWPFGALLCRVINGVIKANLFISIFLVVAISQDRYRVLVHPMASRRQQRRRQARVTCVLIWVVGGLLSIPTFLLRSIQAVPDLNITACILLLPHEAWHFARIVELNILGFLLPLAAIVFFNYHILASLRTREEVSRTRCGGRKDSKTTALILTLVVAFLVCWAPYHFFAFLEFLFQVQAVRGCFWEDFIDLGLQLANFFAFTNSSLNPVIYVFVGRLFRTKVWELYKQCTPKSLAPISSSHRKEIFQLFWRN

The next assay addresses T4, Progesterone receptor (Homo sapiens, UniProt P06401).
T4 sequence (P06401 whole entry): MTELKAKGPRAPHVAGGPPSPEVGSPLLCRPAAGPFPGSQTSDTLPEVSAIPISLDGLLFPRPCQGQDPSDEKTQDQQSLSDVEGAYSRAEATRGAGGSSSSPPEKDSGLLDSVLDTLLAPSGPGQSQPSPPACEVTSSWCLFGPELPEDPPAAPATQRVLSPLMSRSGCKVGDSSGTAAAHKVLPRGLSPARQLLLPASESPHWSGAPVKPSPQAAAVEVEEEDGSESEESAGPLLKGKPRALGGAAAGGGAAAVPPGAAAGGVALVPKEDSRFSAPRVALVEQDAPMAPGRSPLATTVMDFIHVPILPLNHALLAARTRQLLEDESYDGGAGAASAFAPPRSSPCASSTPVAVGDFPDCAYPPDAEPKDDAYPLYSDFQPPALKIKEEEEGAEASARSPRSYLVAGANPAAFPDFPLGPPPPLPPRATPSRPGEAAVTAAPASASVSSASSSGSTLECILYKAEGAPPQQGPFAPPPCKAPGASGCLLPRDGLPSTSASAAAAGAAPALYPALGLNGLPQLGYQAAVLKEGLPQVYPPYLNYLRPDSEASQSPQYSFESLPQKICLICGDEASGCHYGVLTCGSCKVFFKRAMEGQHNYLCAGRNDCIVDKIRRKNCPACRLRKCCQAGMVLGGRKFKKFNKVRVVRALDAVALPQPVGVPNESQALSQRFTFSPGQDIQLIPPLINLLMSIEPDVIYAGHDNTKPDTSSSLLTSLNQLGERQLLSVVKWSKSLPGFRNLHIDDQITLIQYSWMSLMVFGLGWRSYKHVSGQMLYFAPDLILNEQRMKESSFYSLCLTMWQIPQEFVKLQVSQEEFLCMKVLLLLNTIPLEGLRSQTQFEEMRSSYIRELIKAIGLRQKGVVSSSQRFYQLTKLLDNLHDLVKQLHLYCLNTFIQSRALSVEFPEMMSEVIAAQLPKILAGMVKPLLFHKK

Assay [7] concerns the target Beta-3 adrenergic receptor (Homo sapiens, UniProt P13945).
Further: assay procedure not described here.

Chain of Gamma-aminobutyric acid receptor subunit alpha-1/alpha-2/beta-2/gamma-2 (P14867 whole entry): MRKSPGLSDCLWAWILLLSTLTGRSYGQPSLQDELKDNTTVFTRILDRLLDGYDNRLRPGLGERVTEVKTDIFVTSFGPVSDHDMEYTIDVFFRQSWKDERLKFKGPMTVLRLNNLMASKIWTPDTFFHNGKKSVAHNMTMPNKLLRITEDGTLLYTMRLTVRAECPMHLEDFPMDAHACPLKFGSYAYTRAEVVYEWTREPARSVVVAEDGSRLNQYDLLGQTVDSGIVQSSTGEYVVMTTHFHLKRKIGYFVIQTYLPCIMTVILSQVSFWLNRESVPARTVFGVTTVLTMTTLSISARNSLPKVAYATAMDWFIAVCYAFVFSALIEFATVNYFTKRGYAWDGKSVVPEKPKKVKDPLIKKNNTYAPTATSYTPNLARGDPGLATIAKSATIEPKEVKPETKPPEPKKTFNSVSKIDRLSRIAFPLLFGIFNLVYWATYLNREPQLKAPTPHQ
Chain of Gamma-aminobutyric acid receptor subunit alpha-1/alpha-2/beta-2/gamma-2 (P47870 whole entry): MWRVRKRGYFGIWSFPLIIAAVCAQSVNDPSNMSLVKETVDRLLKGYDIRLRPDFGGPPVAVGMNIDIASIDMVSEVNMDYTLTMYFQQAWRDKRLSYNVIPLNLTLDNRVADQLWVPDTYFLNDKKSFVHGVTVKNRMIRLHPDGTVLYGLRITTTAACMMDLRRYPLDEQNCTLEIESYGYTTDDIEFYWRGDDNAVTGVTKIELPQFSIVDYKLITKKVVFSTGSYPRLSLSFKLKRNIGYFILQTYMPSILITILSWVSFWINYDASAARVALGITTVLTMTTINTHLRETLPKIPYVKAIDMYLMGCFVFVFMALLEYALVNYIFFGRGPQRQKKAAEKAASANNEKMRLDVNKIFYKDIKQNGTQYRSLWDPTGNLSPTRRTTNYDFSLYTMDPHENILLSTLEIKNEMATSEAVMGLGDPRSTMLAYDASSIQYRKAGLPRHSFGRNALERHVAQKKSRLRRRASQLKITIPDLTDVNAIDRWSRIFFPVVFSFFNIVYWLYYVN
Chain of Gamma-aminobutyric acid receptor subunit alpha-1/alpha-2/beta-2/gamma-2 (P18507 whole entry): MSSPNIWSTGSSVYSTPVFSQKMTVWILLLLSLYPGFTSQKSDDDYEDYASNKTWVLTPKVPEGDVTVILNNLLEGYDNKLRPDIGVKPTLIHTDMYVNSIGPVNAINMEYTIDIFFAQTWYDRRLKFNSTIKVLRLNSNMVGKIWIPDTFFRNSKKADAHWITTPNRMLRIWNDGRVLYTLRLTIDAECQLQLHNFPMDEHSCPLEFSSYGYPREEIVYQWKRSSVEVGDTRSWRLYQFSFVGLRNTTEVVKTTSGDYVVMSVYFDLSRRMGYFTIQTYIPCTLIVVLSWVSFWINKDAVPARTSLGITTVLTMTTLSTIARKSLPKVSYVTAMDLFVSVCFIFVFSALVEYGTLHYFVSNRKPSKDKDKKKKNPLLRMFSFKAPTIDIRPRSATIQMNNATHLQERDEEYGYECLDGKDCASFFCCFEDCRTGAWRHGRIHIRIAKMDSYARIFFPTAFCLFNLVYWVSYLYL
Chain of Gamma-aminobutyric acid receptor subunit alpha-1/alpha-2/beta-2/gamma-2 (P47869 whole entry): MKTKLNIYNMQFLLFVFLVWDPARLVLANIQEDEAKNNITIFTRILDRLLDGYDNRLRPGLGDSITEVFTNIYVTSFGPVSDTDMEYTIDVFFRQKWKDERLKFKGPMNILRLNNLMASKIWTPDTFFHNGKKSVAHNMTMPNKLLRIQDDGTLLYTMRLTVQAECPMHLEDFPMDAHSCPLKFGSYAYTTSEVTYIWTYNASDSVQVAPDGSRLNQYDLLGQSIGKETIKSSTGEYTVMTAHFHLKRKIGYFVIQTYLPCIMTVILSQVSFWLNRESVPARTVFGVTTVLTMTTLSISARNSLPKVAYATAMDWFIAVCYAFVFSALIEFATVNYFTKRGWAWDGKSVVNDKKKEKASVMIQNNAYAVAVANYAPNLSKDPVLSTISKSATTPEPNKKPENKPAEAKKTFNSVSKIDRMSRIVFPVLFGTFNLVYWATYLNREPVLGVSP
Chain of Beta-3 adrenergic receptor (P13945 whole entry): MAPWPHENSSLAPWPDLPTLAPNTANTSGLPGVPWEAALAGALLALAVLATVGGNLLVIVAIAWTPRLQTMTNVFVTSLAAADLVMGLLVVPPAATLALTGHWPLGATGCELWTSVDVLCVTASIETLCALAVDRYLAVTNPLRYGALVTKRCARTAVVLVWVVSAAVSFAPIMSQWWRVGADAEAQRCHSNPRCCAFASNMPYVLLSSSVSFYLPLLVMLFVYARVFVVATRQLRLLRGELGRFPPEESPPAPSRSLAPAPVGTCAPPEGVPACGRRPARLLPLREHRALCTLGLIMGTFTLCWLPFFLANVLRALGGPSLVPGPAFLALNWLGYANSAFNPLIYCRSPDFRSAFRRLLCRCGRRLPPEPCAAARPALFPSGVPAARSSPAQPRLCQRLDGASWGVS

The AC50 is the midpoint of the concentration-response curve, whichever way the signal moves. For `COc1cc(C(=O)OCc2cccc(COC(=O)c3cc(OC)c(OC)c(OC)c3)n2)cc(OC)c1OC` [PIROZADIL], the AC50 (at Androgen receptor [1]; in assay [2]; on Androgen receptor [3]; on Histamine H1 receptor) was > 30 µM throughout.

As to `CC(CN(C)C)C(C)(O)Cc1ccc(Cl)cc1` (stereo unspecified) [CLOBUTINOL], the AC50 on Androgen receptor [4] and on Histamine H1 receptor was > 30 µM in each case.

`O=C(NCCO[N+](=O)[O-])c1cccnc1` [NICORANDIL]: the AC50 (in assay [2]; at Histamine H1 receptor) was > 30 µM each time.

With `CCOC(=O)c1ncn2c1CN(C)C(=O)c1cc(F)ccc1-2` [FLUMAZENIL], the AC50 on Androgen receptor [4] was > 10 µM; on Androgen receptor [1] it was > 30 µM; on Androgen receptor [3], > 30 µM.

Turning to `Fc1ccc([C@@H]2CCNC[C@H]2COc2ccc3c(c2)OCO3)cc1` [PAROXETINE], the AC50 in assay [5] is > 10 µM; in [6], > 10 µM; on Androgen receptor [4] it was > 30 µM; on B1 bradykinin receptor it was > 30 µM; at Progesterone receptor it was > 30 µM; in assay [7], > 30 µM.

Take `O=c1[nH]c2ccccc2n1CCCN1CCN(C(c2ccccc2)c2ccccc2)CC1` [OXATOMIDE]: the AC50 (in [2]; on Histamine H1 receptor) was > 30 µM throughout.

In the case of `CCN1CCCC1CNC(=O)c1cc(S(=O)(=O)CC)ccc1OC` (stereo unspecified) [SULTOPRIDE], the AC50 (at Androgen receptor [1]; in assay [2]; on Androgen receptor [3]; on Histamine H1 receptor) was > 30 µM in each case.

`COc1cc2[nH]c(C)c(CCN3CCN(c4ccccc4)CC3)c2cc1OC` [OXYPERTINE]: the AC50 (in [2]; on Histamine H1 receptor) was > 30 µM each time.

`CCCCOc1ccc(C(=O)CCN2CCCCC2)cc1` [DYCLONINE]: the AC50 in assay [5] is > 10 µM; in assay [6], > 10 µM; at B1 bradykinin receptor, > 30 µM; at Histamine H1 receptor, > 30 µM; at Progesterone receptor, > 30 µM; in assay [7] it was > 30 µM.
